Source: patent US7759313B2, “Induction method for cell differentiation” (Obschetstvo S Ogranichennoi Otvetstvennostiyu …, priority 2002, dated 2010)
Several values for one entry are separate records, joined by “and”; a condition that tells them apart may be missing. Equal entries are not always repeated. Marks after values point to notes of the source that are not given here.

Assays:
[1] = test system: Friend erythroblastosis; assay: Friend erythroblastosis, histological examination; type: in vivo, mice
Procedure: Friend erythroblastosis which was inoculated subcutaneously to DBA2 female mice via spleen cells was investigated.
Group 2—Reaferon at dose 100 thousand IU/kg was administered daily s.c. from day 3 to day 7 after inoculation;
Group 3—Dicarbamine at a single dose 4.5 mg/kg was administered p.o. from day 3 to day 7 after inoculation;
Group 4—Dicarbamine and Reaferon were administered simultaneously according to a similar scheme.
Material for light microscopy was taken from sacrificed animals at days 3, 7 and 14 after termination of therapy or administration of a physiological saline. Material for electronic microscopy was taken at days 7 and 14.
For histological examination, tumor pieces were fixed in 10% neutral formalin and imbedded into paraffin; slices obtained were stained with hematoxylin-eosin and examined for glycogen (polysaccharide) content using the periodic acid Schiff reaction, for RNA content according to Brachet, and for lipids and iron. Slices were examined and photographed using a Polivar light microscope (Austria).
The percentage of mitoses and cells with apoptosis, as well as areas of necrosis, were assessed during histological examination.

[2] = test system: human melanoma; assay: Number of cells with melanin in inoculated human melanoma (Goryaev's chamber); type: in vivo; details: 4.5 mg/kg p.o. daily for 3 weeks
Procedure: Mice with subcutaneously inoculated human melanoma as described in Example 1 were daily p.o. dosed with Dicarbamine at a higher single dose (4.5 mg/kg for 3 weeks from the moment of the tumor transplantation).
Animals were sacrificed three weeks after the tumor transplantation. By the time of sacrifice, the volume of the tumors was on average 150 mm^3. Following sacrifice, the tumors were excised from the mice and disintegrated with Versen solution, and the cell fraction containing cells with pigment was isolated. The number of cells with pigment was calculated in the Goryaev's chamber using light microscopy.

[3] = test system: Friend erythroblastosis; assay: Subcutaneously inoculated Friend erythroblastosis growth; type: in vivo, mice
Procedure: The studies were conducted on male mice hybrid 100 BDF1 that were divided into groups containing 10 mice each. Lineal DBA2 mice were used for passaging FEB in vivo.
A strain of Friend erythroblastosis was obtained from the bank of tumor strains of the GU RCRC named after N. N. Blokhin of the RAMS. It was twice passaged intraperitoneally using generations 3-8 in subcutaneous inoculation. The inoculation was done using a cellular suspension of 1×10^6 cells in 0.3 ml […].
Solutions of the tested compounds were intra-gastrically daily administered to mice using a probe from day 3 to day 7 after tumor inoculation.
Therapeutic efficacy was assessed on the basis of tumor growth inhibition (TGI, %) and an average life span (ALS). Increase in life span was determined by the commonly accepted criterion T/C (%), which was calculated as a ratio between ALS in the test and control groups. Tumor growth rate Vt/V1 was calculated on the basis of change growth in average tumor volumes.

[4] = test system: M-6 melanoma; assay: Morphologic parameters of M-6 melanoma in nude mice (light microscopy); type: in vivo, mouse (mouse (mouse (mouse (mouse (mouse (mouse (mouse (mouse (mouse (mouse (mouse (human melanoma xenograft) melanoma xenograft) melanoma xenograft) melanoma xenograft) melanoma xenograft) melanoma xenograft) melanoma xenograft) melanoma xenograft) melanoma xenograft) melanoma xenograft) melanoma xenograft) melanoma xenograft)
Procedure: The study was conducted on 10-12 week old thymus free (nude) female Balb/C mice weighing 20-22 grams (breeding of the Russian Cancer Research Center (RCRC) named after N. N. Blokhin of the Russian Academy of Medical Sciences (RAMS)). A human melanoma strain earlier obtained from primary clinical material was taken from the bank of tumor strains of the RCRC of the RAMS for transplantation to thymus free “nude” mice. Tumor was disintegrated by Versen solution with vital Trypan blue staining and inoculated subcutaneously to mice in the amount of 1.6 million cells per mouse.
Dicarbamine was administered to mice intragastrically using a metal probe daily at dose 1.0 mg/kg beginning 4 days before the tumor inoculation and thereafter for 10-11 days (administration course up to 15 days). The mice were sacrificed with ether anesthesia in 12, 24 and 48 hours after the last administration.
Four morphologic parameters, such as the number of cells with pigment and the number of cells with apoptosis signs (capability to differentiate), the number of mitoses (proliferation activity), and necrosis area, were determined to monitor the degree of differentiation and proliferation of M-6 melanoma cells in the groups of control animals and in the Dicarbamine groups. These parameters were determined dynamically and correlated with general morphologic picture of a tumor growth as an integral sign. For this purpose, the tumors were removed from the mice, placed into formalin, and histologically processed for light microscopy.

[5] = Dicarbamine 4.5 mg/kg p.o. days 3-7
[6] = 1.5 mg/kg daily for 5 days, day 8
[7] = 1.5 mg/kg daily for 5 days, day 13
[8] = 1.5 mg/kg daily for 5 days, day 19
[9] = 4.5 mg/kg daily for 5 days, day 8
[10] = 4.5 mg/kg daily for 5 days, day 13
[11] = 4.5 mg/kg daily for 5 days, day 19
[12] = 1.0 mg/kg daily, 12 hours since withdrawal
[13] = 1.0 mg/kg daily, 24 hours since withdrawal
[14] = 1.0 mg/kg daily, 48 hours since withdrawal

For `O=C(O)CCCC(=O)NCCc1c[nH]cn1` [Dicarbamine], the Apoptosis ([1]; Dicarbamine 4.5 mg/kg p.o. + Reaferon 100 thousand IU/kg s.c., day 3) was 0.2-0.5%, the “area of necrosis as compared to group I (control)” value [1, 5] was “did not significantly change” and the “mitotic activity as compared to the control” value [1, 5] was “remained within the limits of the control figures”. For the same compound, the “area of necrosis and mitotic activity as compared to group II (Reaferon)” value ([1]; Dicarbamine + Reaferon) was “did not show significant shifts”, the Apoptosis ([1]; Dicarbamine + Reaferon, days 7 and 14) was 0.5% and the “increase of number of cells synthesizing melanin vs control” value [2] was 3 fold. For the same compound, the “Number of cells with melanin” value ([2]; individual tumors 1-7) was 95 (2×) and 110 and 130 and 106 and 111 (2×), the “Relative tumor volumes Vt/V1 at days after tumor inoculation” value [3, 6] was 1.0 and the Tumor growth inhibition [3, 6] was 61%. The “Relative tumor volumes Vt/V1” value [3, 7] was 1.56, the Tumor growth inhibition [3, 7] was 78* % and the “Relative tumor volumes Vt/V1” value [3, 8] was 3.0. The Tumor growth inhibition [3, 8] was 55%, the “Relative tumor volumes Vt/V1” value [3, 9] was 1.0 and the Tumor growth inhibition [3, 9] was 62%. The “Relative tumor volumes Vt/V1” value [3, 10] was 2.3, the Tumor growth inhibition [3, 10] was 58% and the “Relative tumor volumes Vt/V1” value [3, 11] was 3.76. The Tumor growth inhibition [3, 11] was 38%, the Apoptosis [4, 12] was 0.1–0.2% and the Cells with pigment [4, 12] was 2–3%. For the same compound, the Mitoses [4, 12] was 3–5%, the Apoptosis [4, 13] was 0.2–0.3% and the Cells with pigment [4, 13] was 2–4%. For the same compound, the Mitoses [4, 13] was 3–5%, the Necrosis area [4, 13] was 7–9% and the Apoptosis [4, 14] was 0.2–0.3%. For the same compound, the Cells with pigment [4, 14] was 3–5%, the Mitoses [4, 14] was 3–5% and the Necrosis area [4, 14] was 8–10%. The Necrosis area ([4]; 1.0 mg/kg intragastrically daily up to 15 days, 12 hours since withdrawal) was 6–7%.
